Values after ≈ are worked out from the molar mass of the structure shown. Like-named read-outs stand apart in the source and are kept apart here.
How the values were obtained:
[1] = test system: C. parapsillosis ATCC 22019T; assay: Robotic MIC assay, Candida strains (Example 2); type: cell-based, Candida parapsilosis; conditions: Lodderomyces parapsilosis, ATCC22019, 48 h, Mueller-Hinton broth, read-out: Minimum Inhibitory Concentration (MIC)
Description: A robotic MIC Assay was performed as follows. OligoG CF-5/20 were dissolved in medium (Mueller-Hinton broth or M19 broth depending on experiment) to 1.25 times of the desired assay concentrations (2, 6 and 10%). The antifungal agents under test were dissolved in medium without OligoG CF-5/20 and in medium with OligoG CF-5/20 at a concentration of 1.25 times the highest desired assay concentrations. For experiments where the effect of adding different concentrations of Na^+ was investigated, NaCl was dissolved in medium to the desired concentrations (10, 30 and 50 mM).
Two-fold serial dilutions of antifungal agents were made in medium with different concentrations of OligoG CF-5/20, and the solutions were placed in four parallel wells in Nunc 384-well micro plates (30 μl per well in Nunc 242757 microplates). A group of 8 wells with no addition of antifungal agents for each OligoG CF-5/20 concentration was included on each microplate as growth reference. To each well in the 384-well assay plates was added 7.5 μl of medium inoculated with a frozen stock culture of Candida albicans (strain CCUG 39343).
The micro plates were placed in plastic bags and incubated without shaking at 34° C. The optical density at 600 nm in the microwells was measured after approximately 13, 18, 24 and 34 hours of incubation, and the relative growth yield in each well was calculated based on the growth in the reference groups.
The robotic assay described in Example 1 was employed in this Example. Strains were grown in Mueller-Hinton broth (LAB114 from Lab M Limited) and MIC values (μg ml-1) were determined for each antifungal after incubation for 48 h in the presence of 0, 2, 6 and 10% OligoG CF-5/20 G-fragments. […] OligoG CF-5/20 G-fragments were provided by AlgiPharma AS, Norway.
Candida strains used were as follows: • C. albicans CCUG 39343 (strain from culture collection) • C. parapsillosis ATCC 22019T (strain from culture collection) • C. krusei 141/03 (candidosis) • C. krusei 249/03(2) (ulceration) • C. lusitaniae 994/01(2) (candidosis) • C. tropicalis 12 (vaginal) • C. tropicalis 75 (vaginal) • C. tropicalis 519468 (urinary) • C. tropicalis 544123 (urinary) • C. tropicalis 250/03 (candidosis) • C. tropicalis AG1 (oral) • C. tropicalis T2.2 (oral)

[2] = test system: Aspergillus flavus CCUG 28296; assay: Robotic MIC assay, Aspergillus (Example 4); type: cell-based; conditions: Aspergillus flavus, CCUG23451 / CCUG28296, 48 h, Mueller-Hinton broth, read-out: Minimum Inhibitory Concentration (MIC)
Summary of the method: (§1)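 Frozen spore/mycelium stocks were used as inoculum, sized for adequate 48 h growth. Two-fold antifungal dilutions were prepared in Mueller-Hinton broth with OligoG CF-5/20 (2, 6 or 10% assay concentrations; quadruplicate wells). Plates were incubated static at 34 °C, with OD600 read at about 24 and 48 h.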

[3] = test system: Aspergillus fumigatus CCUG 17460; assay: Robotic MIC assay, Aspergillus (Example 4); type: cell-based; conditions: Aspergillus fumigatus, CCUG17460, 48 h, Mueller-Hinton broth, read-out: Minimum Inhibitory Concentration (MIC)
Summary of the method: as §1

[4] = test system: Aspergillus niger CCUG 18919; assay: Robotic MIC assay, Aspergillus (Example 4); type: cell-based; conditions: Aspergillus niger, CCUG18919, 48 h, Mueller-Hinton broth, read-out: Minimum Inhibitory Concentration (MIC)
Summary of the method: as §1

[5] = test system: C. krusei 141/03 (candidosis); assay: Robotic MIC assay, Candida strains (Example 2); type: cell-based; conditions: Pichia kudriavzevii, 48 h, Mueller-Hinton broth, read-out: Minimum Inhibitory Concentration (MIC)
Summary of the method: (§2)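 Antifungals were serially diluted two-fold in Mueller-Hinton broth containing 0, 2, 6 or 10% OligoG CF-5/20, then inoculated with the Candida strain. Plates were incubated statically at 34° C for 48 h before MIC values (μg ml-1) were determined.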

[6] = test system: C. tropicalis 250/03 (candidosis); assay: Robotic MIC assay, Candida strains (Example 2); type: cell-based; conditions: Candida tropicalis, 48 h, C. tropicalis 250/03 Candiosis, Mueller-Hinton broth, read-out: Minimum Inhibitory Concentration (MIC)
Summary of the method: as §2

[7] = test system: C. lusitaniae 994/01(2) (candidosis); assay: Robotic MIC assay, Candida strains (Example 2); type: cell-based; conditions: Clavispora lusitaniae, 48 h, Mueller-Hinton broth, read-out: Minimum Inhibitory Concentration (MIC)
Summary of the method: as §2

[8] = test system: C. tropicalis 75 (vaginal); assay: Robotic MIC assay, Candida strains (Example 2); type: cell-based; conditions: Candida tropicalis, 48 h, Mueller-Hinton broth, read-out: Minimum Inhibitory Concentration (MIC)
Summary of the method: as §2

C. albicans CCUG 39343 = assay: Robotic MIC assay, Candida strains (Example 2); type: cell-based; conditions: Candida albicans, CCUG39343, 48 h, Mueller-Hinton broth, read-out: Minimum Inhibitory Concentration (MIC)
Summary of the method: as §2

[9] = test system: C. tropicalis 519468 (urinary); assay: Robotic MIC assay, Candida strains (Example 2); type: cell-based; conditions: Candida tropicalis, 48 h, Mueller-Hinton broth, read-out: Minimum Inhibitory Concentration (MIC)
Summary of the method: as §2

[10] = test system: C. tropicalis T2.2 (oral); assay: Robotic MIC assay, Candida strains (Example 2); type: cell-based; conditions: Candida tropicalis, 48 h, Mueller-Hinton broth, read-out: Minimum Inhibitory Concentration (MIC)
Summary of the method: as §2

MIC ([1]; 0% OligoG): 2 µg/mL (≈ 6.86 µM)
MIC ([1]; 2% OligoG): 1 µg/mL (≈ 3.43 µM)
MIC ([1]; 6% OligoG): 2 µg/mL (≈ 6.86 µM)
MIC ([1]; 10% OligoG): 1 µg/mL (≈ 3.43 µM)
MIC ([2]; A. flavus CCUG 23451, 0% OligoG): 0.125 µg/mL (≈ 0.429 µM)
MIC ([2]; A. flavus CCUG 23451, 2% OligoG): 0.0625 µg/mL (≈ 0.214 µM)
MIC ([2]; A. flavus CCUG 23451, 6% OligoG): < 0.0312 µg/mL
MIC ([2]; A. flavus CCUG 23451, 10% OligoG): < 0.0312 µg/mL
MIC ([3]; A. fumigatus CCUG 17460, 0% OligoG): 4 µg/mL (≈ 13.7 µM)
MIC ([3]; A. fumigatus CCUG 17460, 2% OligoG): 4 µg/mL (≈ 13.7 µM)
MIC ([3]; A. fumigatus CCUG 17460, 6% OligoG): 4 µg/mL (≈ 13.7 µM)
MIC ([3]; A. fumigatus CCUG 17460, 10% OligoG): 2 µg/mL (≈ 6.86 µM)
MIC ([4]; A. niger CCUG 18919, 0% OligoG): 0.5 µg/mL (≈ 1.72 µM)
MIC ([4]; A. niger CCUG 18919, 2% OligoG): 0.25 µg/mL (≈ 0.858 µM)
MIC ([4]; A. niger CCUG 18919, 6% OligoG): 0.0625 µg/mL (≈ 0.214 µM)
MIC ([4]; A. niger CCUG 18919, 10% OligoG): 0.125 µg/mL (≈ 0.429 µM)
MIC ([5]; 0% OligoG): > 32 µg/mL
MIC ([5]; 2% OligoG): > 32 µg/mL
MIC ([5]; 6% OligoG): > 32 µg/mL
MIC ([5]; 10% OligoG): > 32 µg/mL
MIC ([6]; 0% OligoG): > 32 µg/mL
MIC ([6]; 2% OligoG): > 32 µg/mL
MIC ([6]; 6% OligoG): > 32 µg/mL
MIC ([6]; 10% OligoG): > 32 µg/mL
MIC ([7]; 0% OligoG): 8 µg/mL (≈ 27.5 µM)
MIC ([7]; 2% OligoG): 4 µg/mL (≈ 13.7 µM)
MIC ([7]; 6% OligoG): 4 µg/mL (≈ 13.7 µM)
MIC ([7]; 10% OligoG): 2 µg/mL (≈ 6.86 µM)
MIC ([8]; 0% OligoG): > 32 µg/mL
MIC ([8]; 2% OligoG): > 32 µg/mL
MIC ([8]; 6% OligoG): > 32 µg/mL
MIC ([8]; 10% OligoG): > 32 µg/mL
MIC (C. albicans CCUG 39343; 0% OligoG): > 32 µg/mL
MIC (C. albicans CCUG 39343; 2% OligoG): > 32 µg/mL
MIC (C. albicans CCUG 39343; 6% OligoG): > 32 µg/mL
MIC (C. albicans CCUG 39343; 10% OligoG): > 32 µg/mL
MIC ([9]; 0% OligoG): > 32 µg/mL
MIC ([9]; 2% OligoG): > 32 µg/mL
MIC ([9]; 6% OligoG): > 32 µg/mL
MIC ([9]; 10% OligoG): > 32 µg/mL
MIC ([10]; 0% OligoG): > 32 µg/mL
MIC ([10]; 2% OligoG): > 32 µg/mL
MIC ([10]; 6% OligoG): > 32 µg/mL
MIC ([10]; 10% OligoG): 32 µg/mL (≈ 110 µM)
Structure (SMILES): CN(C/C=C/C#CC(C)(C)C)Cc1cccc2ccccc12 [Terbinafine, terbinafine]
